Reference: PMC5741663, “Antimicrobial peptide capsids of de novo design” (Nature Communications, 2017)
Values after ≈ are worked out from the molar mass of the structure shown. Where two headings read alike, the source gives them in different places. Marks after values point to notes of the source that are not given here. Starred links: 1 amine or outer side, 2 acyl side, 3 side chain; linkers in the order of their positions; H or OH if unused. Positions of bridges follow the written chain, without caps; N, C: chain ends. Non-standard residues stand in square brackets, D forms with d. Residues, ends and D or L forms follow the SMILES beside them. Chains are numbered I, II in the order given. *: point of attachment. X1 = CC(=O)N[C@@H](CCCCN[*:3])C(=O)NCCC(=O)N[C@@H](CCCCN[*:2])C(=O)NCCC(=O)N[C@@H](CCCCN[*:1])C(N)=O; X2 = CC[C@H](C)CCCCC(=O)*; Orn = NCCC[C@H](N)C(=O)O; Dab = NCC[C@H](N)C(=O)O; βAla = NCCC(=O)O

Assays:
Format in all cases: cell-based
[1] = tested on: B. subtilis (ATCC6633)
Protocol: (§1) MICs were determined by broth microdilution on different bacteria according to the Clinical and Laboratory Standards Institute. Typically, 100 μL of 0.5–1 × 10^6 CFU mL^–1 of each bacterium in Mueller Hinton media broth (Oxoid) were incubated in 96-well microtitre plates with 100 μL of serial two-fold dilutions of the peptides (from 100 to 0 μM) at 37 °C on a 3D orbital shaker. The absorbance was measured after peptide addition at 600 nm using a Victor 2 plate reader (Perkin-Elmer). MICs were defined as the lowest peptide concentration after 24 h at 37 °C.

[2] = tested on: P. aeruginosa (ATCC27853)
Protocol: as §1

[3] = tested on: E. faecalis (OG1X)
Protocol: as §1

[4] = tested on: E. coli (K12)
Protocol: as §1

[5] = tested on: S. aureus (ATCC6538)
Protocol: as §1

[6] = tested on: K. pneumoniae (NCTC 5055)
Protocol: MICs were determined by broth microdilution on different bacteria according to the Clinical and Laboratory Standards Institute. […] The absorbance was measured after peptide addition at 600 nm using a Victor 2 plate reader (Perkin-Elmer). MICs were defined as the lowest peptide concentration after 24 h at 37 °C.

[7] = tested on: S. enterica (ATCC700720)
Protocol: MICs were determined by broth microdilution on different bacteria according to the Clinical and Laboratory Standards Institute. […] The absorbance was measured after peptide addition at 600 nm using a Victor 2 plate reader (Perkin-Elmer).

[8] = tested on: Human erythrocytes; experiment: Haemolysis assay; settings: 10% (vol/vol) human erythrocytes in PBS pH 7.2, 1 h at room temperature, absorbance 550 nm; triplicates
Protocol: Haemolysis was determined by incubating a 10% (vol/vol) suspension of human erythrocytes with peptides. Erythrocytes were rinsed four times in 10 mM phosphate buffer saline (PBS), pH 7.2, by repeated centrifugation and re-suspension (3 min at 3000×g). Erythrocytes were incubated at room temperature for 1 h in either deionised water (fully haemolysed control), PBS, or with peptide in PBS. After centrifugation at 10,000×g for 5 min, the supernatant was separated from the pellet, and the absorbance was measured at 550 nm. Absorbance of the suspension treated with deionised water defined complete haemolysis.

[9] = S. enterica (ATCC700720), Mueller Hinton broth, 0.5–1 × 10^6 CFU mL–1, 24 h at 37 °C, absorbance 600 nm, total peptide concentration, triplicates

Compound | Minimum inhibitory concentrations ([1]; ATCC6633, 24 h) [µM] | Minimum inhibitory concentrations ([2]; ATCC27853, 24 h) [µM] | Minimum inhibitory concentrations ([3]; OG1X, 24 h) [µM] | Minimum inhibitory concentrations ([4]; K12, 24 h) [µM] | Minimum inhibitory concentrations ([5]; ATCC6538, 24 h) [µM] | Minimum inhibitory concentrations ([6]; NCTC 5055, 24 h) [µM] | Minimum inhibitory concentrations ([7]; ATCC700720, 24 h) [µM] | LC50, median (50%) cell death compared to untreated cells [8] | Minimum inhibitory concentrations [7, 9] [µM] | Minimum inhibitory concentrations ([1]; B. subtilis (ATCC6633), Mueller Hinton broth, 0.5–1 × 10^6 CFU mL–1, 24 h at 37 °C, absorbance 600 nm, total peptide concentration, triplicates) [µM] | Minimum inhibitory concentrations ([2]; P. aeruginosa (ATCC27853), Mueller Hinton broth, 0.5–1 × 10^6 CFU mL–1, 24 h at 37 °C, absorbance 600 nm, total peptide concentration, triplicates) [µM] | Minimum inhibitory concentrations ([3]; E. faecalis (OG1X), Mueller Hinton broth, 0.5–1 × 10^6 CFU mL–1, 24 h at 37 °C, absorbance 600 nm, total peptide concentration, triplicates) [µM] | Minimum inhibitory concentrations ([4]; E. coli (K12), Mueller Hinton broth, 0.5–1 × 10^6 CFU mL–1, 24 h at 37 °C, absorbance 600 nm, total peptide concentration, triplicates) [µM] | Minimum inhibitory concentrations ([5]; S. aureus (ATCC6538), Mueller Hinton broth, 0.5–1 × 10^6 CFU mL–1, 24 h at 37 °C, absorbance 600 nm, total peptide concentration, triplicates) [µM] | Minimum inhibitory concentrations ([6]; K. pneumoniae (NCTC 5055), Mueller Hinton broth, 0.5–1 × 10^6 CFU mL–1, 24 h at 37 °C, absorbance 600 nm, total peptide concentration, triplicates) [µM]
I: H-KIAKLKQKIQKLKAKIAKLKQ[βAla][βAla] / II: H-KIAKLKQKIQKLKAKIAKLKQ[βAla][βAla] / III: H-KIAKLKQKIQKLKAKIAKLKQ[βAla][βAla] (linker I:C-II:C-III:C via X1) [C 3 (+) strand] | 1.5 | 3 | 50 | 1.5 | 50 | >12 | 3 | – | – | – | – | – | – | – | –
CCCCCCCCCC(=O)N[C@@H](Cc1c[nH]c2ccccc12)C(=O)N[C@H](CC(N)=O)C(=O)N[C@@H](CC(=O)O)C(=O)N[C@@H]1C(=O)NCC(=O)N[C@@H](CCCN)C(=O)N[C@@H](CC(=O)O)C(=O)N[C@H](C)C(=O)N[C@@H](CC(=O)O)C(=O)NCC(=O)N[C@H](CO)C(=O)N[C@@H]([C@H](C)CC(=O)O)C(=O)N[C@@H](CC(=O)c2ccccc2N)C(=O)O[C@@H]1C [Daptomycin] | <8 | >100 | >100 | >100 | <8 | – | – | >250^d µM | >50 | – | – | – | – | – | –
CC(C)C[C@@H]1NC(=O)[C@H](CCCN)NC(=O)[C@H](C(C)C)NC(=O)[C@@H]2CCCN2C(=O)[C@@H](Cc2ccccc2)NC(=O)[C@H](CC(C)C)NC(=O)[C@H](CCCN)NC(=O)[C@H](C(C)C)NC(=O)[C@@H]2CCCN2C(=O)[C@@H](Cc2ccccc2)NC1=O [Gramicidin S] (cyclo(V[Orn]L[dF]PV[Orn]L[dF]P)) | >40 | >40 | – | <20 | <20 | – | – | >20 µM | <10 | – | – | – | – | – | –
CC[C@H](C)CCCCC(=O)N[C@@H](CCN)C(=O)N[C@H](C(=O)N[C@@H](CCN)C(=O)N[C@H]1CCNC(=O)[C@H]([C@@H](C)O)NC(=O)[C@H](CCN)NC(=O)[C@H](CCN)NC(=O)[C@H](CC(C)C)NC(=O)[C@@H](Cc2ccccc2)NC(=O)[C@H](CCN)NC1=O)[C@@H](C)O [Polymyxin B] (X2-[Dab]T[Dab][Dab][Dab][dF]L[Dab][Dab]T; lactam 4-C (inferred); N-terminus assumed) | – | – | – | – | – | – | – | – | <1 | 1.5 (≈ 1.81 µg/mL) | <1 | >100 | <1 | <50 | <1
